In patent publication EP4703354A1, “COMPOUND AS CCR6 ANTAGONIST, AND PHARMACEUTICAL COMPOSITION AND USE THEREOF” (Wuhan Createrna Science and Technology Co.,Ltd., priority 2023, dated 2024):
Read-outs that look alike come from different tables or passages of the source.

Columns and labels:
[1] = biological target: T1, human CCR6 (Homo sapiens, UniProt P51684); test: human CCR6 calcium flux activity (FLIPR, HEK293 cells stably expressing human CCR6, CCL20 stimulation); assay type: cell-based; conditions: HEK293 cells stably expressing human CCR6, EC80 human MIP-3 alpha/CCL20; read-out: CCR6 inhibitory activity, IC50
T1 construct: expressed in transfected cells; host or cells: HEK293
T1 sequence (P51684 1-374): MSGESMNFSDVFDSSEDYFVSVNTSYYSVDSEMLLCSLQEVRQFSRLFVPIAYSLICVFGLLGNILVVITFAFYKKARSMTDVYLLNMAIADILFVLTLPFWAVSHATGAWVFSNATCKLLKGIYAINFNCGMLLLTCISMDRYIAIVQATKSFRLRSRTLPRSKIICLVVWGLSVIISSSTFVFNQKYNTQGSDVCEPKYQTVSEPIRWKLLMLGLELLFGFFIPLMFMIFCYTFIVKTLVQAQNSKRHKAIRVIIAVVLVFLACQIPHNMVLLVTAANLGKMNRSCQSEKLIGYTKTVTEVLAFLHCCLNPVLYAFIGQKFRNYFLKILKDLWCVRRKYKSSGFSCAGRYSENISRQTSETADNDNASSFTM
Outline: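 Compounds preincubated with Fluo-4 Direct-loaded cells 50 min at 37 °C, then 10 min at room temperature, before CCL20 challenge at EC80. Fluorescence (ex 494/em 516 nm) recorded 90 s; max−min signal gives inhibition, four-parameter fit yields IC50.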

[2] = in vitro liver microsome metabolic stability, human; assay type: in vitro ADME; conditions: Human liver microsomes, 37°C
Outline: (§1)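 Test compound at 1 µM final (100 µM working solution diluted 1:100) incubated at 37°C with liver microsomes in pH 7.4 phosphate buffer with NADP/G6P/G6PDH/MgCl2 regenerating system; sampled 0–30 min, LC-MS/MS vs internal standard. T1/2 = 0.693/k from remaining-fraction decay.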

[3] = in vitro liver microsome metabolic stability, rat; assay type: in vitro ADME; conditions: Rat liver microsomes, 37°C
Outline: as §1

[4] = in vitro liver microsome metabolic stability, mouse; assay type: in vitro ADME; conditions: Mouse liver microsomes, 37°C
Protocol: Preparation of working solutions for test compounds and standards: An appropriate amount of the compound was accurately weighed and dissolved in a corresponding volume of suitable solvent to prepare 1 mM stock solutions of the test compounds and standards. The stock solutions were then diluted with appropriate solvent to obtain 100 µM working solutions of the test compounds, ensuring that the DMSO content in the working solutions remained below 10%.
The internal standard compound testosterone (or tolbutamide) and its corresponding solvent, internal standard concentration (200 ng/mL), were selected based on the properties of the test compound.
• Solution A: 0.1 mol/L K2HPO4 (2.28 g K2HPO4·3H2O was dissolved in 100 mL of double-distilled water); • Solution B: 0.1 mol/L KH2PO4 (1.36 g KH2PO4 was dissolved in 100 mL of double-distilled water); • 80.2 mL of Solution A and 19.8 mL of Solution B were mixed thoroughly, and the pH was adjusted to 7.4.
37.5 mg of glycine was weighed, dissolved in 100 mL of ultrapure water, and adjusted to pH 8.0 with NaOH.
1.25 mg of glucose-6-phosphate dehydrogenase (400 U/mg) was weighed (the specific amount weighed was calculated based on the activity of the purchased glucose-6-phosphate dehydrogenase), dissolved in 1 mL of glycine buffer to a concentration of 500 U/mL, aliquoted into 20 µL per tube, and stored at -20°C for future use.
7.83 mg of NADP, 0.06 mL of D-glucose-6-phosphate (260 mg/mL), and 10.17 mg of MgCl2·6H2O were precisely weighed.
The mixture was dissolved in 1 mL of pure water. The cofactor ratio composition: NADP 10 mM, D-glucose-6-phosphate 60 mM, MgCl2·6H2O 50 mM.
The reaction system (taking a 500 µL system as an example) was composed of the following solution ratios: 416.5 µL phosphate buffer, 5 µL compound working solution, 25 µL liver microsomes, 3.5 µL glucose-6-phosphate dehydrogenase, and 50 µL cofactor solution. The total incubation volume could be adjusted according to experimental requirements.
416.5 µL of phosphate buffer was taken, 25 µL of liver microsomes, 3.5 µL of glucose-6-phosphate dehydrogenase, and 50 µL of cofactor solution were added, vortexed twice to mix, and preincubated in a 37°C water bath for 5 minutes. Then, 5 µL of the test compound working solution was added, vortexed twice to mix, each time for 2-3 seconds, and placed in a 37°C water bath to initiate the reaction, with two parallel samples set. At 0.5 min, 1 min, 2 min, 5 min, 15 min, and 30 min after the reaction, 50 µL of the mixture was taken and added to centrifuge tubes containing 200 µL of 0°C pre-cooled internal standard working solution to terminate the reaction, vortexed for 1 minute to mix, and centrifuged at 13,000 rpm for 10 minutes in a 4°C pre-cooled high-speed centrifuge. The supernatant was collected for analysis. After the compound was added and vortex-mixed, 50 µL of the mixture was rapidly transferred to a centrifuge tube containing 200 µL of a pre-cooled (0°C) internal standard working solution to terminate the reaction, vortex-mixed for 1 minute, and used as the relative zero-point sample (relative to the standard group). The sample was then placed into a 37°C water bath to initiate the reaction, and timing was started.
The sample analysis of the test compound was performed using the liquid chromatography-tandem mass spectrometry (LCMS/MS) method. The semi-quantitative determination was performed using the ratio of the analyte peak area to the internal standard peak area. The retention times of the analyte and internal standard, chromatogram acquisition, and chromatogram integration were processed using Analyst software.
The in vitro elimination rate constant k of the test compound and the control compound was determined by converting the ratio of the peak area of the test compound to the internal standard into the remaining rate, and T1/2 was then calculated according to the following formula. T1/2 = (Ln2)/(k) = (0.693)/(k) [formula] Table 3. […]

[5] = in vitro liver microsome metabolic stability, beagle dog; assay type: in vitro ADME; conditions: Beagle dog liver microsomes, 37°C
Outline: as §1

[6] = in vivo pharmacokinetic study in SD rats; conditions: rat; for bioavailability: 1 mg/kg PO vs 1 mg/kg IV, read-out: Oral bioavailability F (%); for AUC(0-t) / Cmax / half-life: 1 mg/kg
Outline: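 Male SD rats (180-200 g), 3 per route: single fasted oral gavage in 1% Tween 80 or tail-vein IV bolus in 50% PEG400. Orbital blood into EDTA-K2 sampled to 8 h; plasma analysed and PK parameters derived by non-compartmental analysis.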

SMILES | IC50 [1] [nM] | Liver microsome T1-2 (min) Human [2] [min] | Liver microsome T1-2 (min) Rat [3] [min] | Liver microsome T1-2 (min) Mouse [4] [min] | Liver microsome T1-2 (min) Beagle dog [5] [min] | bioavailability ([6]; in vivo) [%] | AUC(0-t) ([6]; in vivo, IV) [ng·h/mL] | Cmax ([6]; in vivo, IV) [ng/mL] | half-life ([6]; in vivo, IV) [min] | AUC(0-t) ([6]; in vivo, PO) [ng·h/mL] | Cmax ([6]; in vivo, PO) [ng/mL] | half-life ([6]; in vivo, PO) [min] | bioavailability ([6]; male, plasma) [%] | AUC(0-t) ([6]; male, plasma, IV) [ng·h/mL] | Cmax ([6]; male, plasma, IV) [ng/mL] | AUC(0-t) ([6]; male, plasma, PO) [ng·h/mL] | Cmax ([6]; male, plasma, PO) [ng/mL]
CN(C)C(=O)c1nccc(Nc2c(NC(c3ncccn3)C3(C)CCCC3)c(=O)c2=O)c1O (racemic) [compound 017] | 10 | 1176.24 | 324.15 | 1273.80 | 848.60 |  |  |  |  |  |  |  |  |  |  |  | 
CN(C)C(=O)c1nccc(Nc2c(NC(c3nc(F)ccc3F)C3(C)CC(F)(F)CO3)c(=O)c2=O)c1O (stereo not shown) [compound 062, 4-((2-(((4,4-difluoro-2-methyltetrahydrofuran-2-yl)(3,6-difluoropyridin-2-yl)methyl)amino)-3,4-dioxocyclobut-1-en-1-yl)amino)-3-hydroxy-N,N-dimethylpicolinamide] | 32.9 | 1048.05 | 801.17 | 228.33 | 1250.74 |  |  |  |  |  |  |  |  |  |  |  | 
CN(C)C(=O)c1nccc(Nc2c(NC(c3nc(Cl)ccc3F)C3(C)CC4CC4C3)c(=O)c2=O)c1O (stereo not shown) [compound 085, 4-((2-(((6-chloro-3-fluoropyridin-2-yl)(3-methylbicyclo[3.1.0]hexan-3-yl)methyl)amino)-3,4-dioxocyclobut-1-en-1-yl)amino)-3-hydroxy-N,N-dimethylpicolinamide] | 38 | 226.52 | 56.96 | 54.79 | 204.66 |  |  |  |  |  |  |  |  |  |  |  | 
CN(C)C(=O)c1nccc(Nc2c(NC(C#CC3CCC3)C3(C)CC(F)(F)CO3)c(=O)c2=O)c1O (stereo not shown) [compound 110] |  | 324.84 | 97.61 | 1846.01 | 369.92 | 60.2 | 739 | 3780 | 17.4 | 444 | 268 | 57.6 |  |  |  |  | 

Second part, the compound after the results:

IC50 [1] [nM] | Liver microsome T1-2 (min) Human [2] [min] | Liver microsome T1-2 (min) Rat [3] [min] | Liver microsome T1-2 (min) Mouse [4] [min] | Liver microsome T1-2 (min) Beagle dog [5] [min] | bioavailability ([6]; in vivo) [%] | AUC(0-t) ([6]; in vivo, IV) [ng·h/mL] | Cmax ([6]; in vivo, IV) [ng/mL] | half-life ([6]; in vivo, IV) [min] | AUC(0-t) ([6]; in vivo, PO) [ng·h/mL] | Cmax ([6]; in vivo, PO) [ng/mL] | half-life ([6]; in vivo, PO) [min] | bioavailability ([6]; male, plasma) [%] | AUC(0-t) ([6]; male, plasma, IV) [ng·h/mL] | Cmax ([6]; male, plasma, IV) [ng/mL] | AUC(0-t) ([6]; male, plasma, PO) [ng·h/mL] | Cmax ([6]; male, plasma, PO) [ng/mL] | SMILES
7 | 281.53 | 85.28 | 1127.82 | 202.32 |  |  |  |  |  |  |  |  |  |  |  |  | CN(C)C(=O)c1nccc(Nc2c(N[C@@H](c3cccc(F)n3)C3(C)CCCC3)c(=O)c2=O)c1O [compound 002, (R)-4-((2-(((6-fluoropyridin-2-yl)(1-methylcyclopentyl)methyl)amino)-3,4-dioxocyclobut-1-en-1-yl)amino)-3-hydroxy-N,N-dimethylpicolinamide]
12.3 | 672.88 | 90.26 | 6368.42 | 320.98 |  |  |  |  |  |  |  |  |  |  |  |  | CN(C)C(=O)c1nccc(Nc2c(N[C@@H](c3ccccn3)C3(C)CCCC3)c(=O)c2=O)c1O [compound 004, (R)-3-hydroxy-N,N-dimethyl-4-((2-(((1-methylcyclopentyl)(pyridin-2-yl)methyl)amino)-3,4-dioxocyclobut-1-en-1-yl)amino)picolinamide]
7.4 | 271.15 | 116.86 | 1925.01 | 271.86 |  |  |  |  |  |  |  |  |  |  |  |  | CN(C)C(=O)c1nccc(Nc2c(N[C@@H](c3cc(F)cc(F)n3)C3(C)CCCC3)c(=O)c2=O)c1O [compound 022, (R)-4-((2-(((4,6-difluoropyridin-2-yl)(1-methylcyclopentyl)methyl)amino)-3,4-dioxocyclobut-1-en-1-yl)amino)-3-hydroxy-N,N-dimethylpicolinamide]
3.9 | 197.68 | 39.70 | ≥120 | 200.21 |  |  |  |  |  |  |  |  |  |  |  |  | Cc1cc(F)cnc1[C@H](Nc1c(Nc2ccnc(C(=O)N(C)C)c2O)c(=O)c1=O)C1(C)CCCC1 [compound 065, (R)-4-((2-(((5-fluoro-3-methylpyridin-2-yl)(1-methylcyclopentyl)methyl)amino)-3,4-dioxocyclobut-1-en-1-yl)amino)-3-hydroxy-N,N-dimethylpicolinamide]
 | 531.62 | 58.22 | ≥120 | 331.52 |  |  |  |  |  |  |  | 26.9 | 1550 | 3900 | 417 | 266 | CN(C)C(=O)c1nccc(Nc2c(NC(c3nc(F)ccc3F)C3(C)CC4CC4C3)c(=O)c2=O)c1O (stereo not shown) [compound 126, 4-((2-(((3,6-difluoropyridin-2-yl)(3-methylbicyclo[3.1.0]hexan-3-yl)methyl)amino)-3,4-dioxocyclobut-1-en-1-yl)amino)-3-hydroxy-N,N-dimethylpicolinamide]
